Experimental data from patent US20120196824A1, “THERAPEUTIC AGENT FOR CEREBRAL INFARCTION” (MITSUBISHI TANABE PHARMA CORPORATION, priority 2009, published 2012).
Where a name gives a salt, the structure may show the parent alone.

Tests used:
[1] = tested on: Mouse Ischemic Stroke Model; assay: Infarct volume suppressive and motor function improving effects in mouse ischemic stroke model (Rose Bengal photothrombosis, TTC staining, Rota-rod); format: in vivo; conditions: dose of 10 mg/kg; for infarct volume suppression rate (%): two administrations, measured two days later, TTC staining; for walking time (%): walking time on Rota-Rod with Vehicle 100%, two days later
Description: Mouse was fixed under isoflurane anesthesia and the scalp was incised. Rose Bengal (7.5 mg/kg) was administered i.v., and green light (550 nm, Hamamatsu Photonics, K.K.) was immediately irradiated at 2 mm side and 1 mm above the bregma for 5 min. Thereafter, the scalp was bonded with an instant glue. To the test drug and control groups was given the first administration after the mice awoke, and they were subjected to the administration again the next day. Two days later, motor function was evaluated by Rota-rod (up to 60 sec, walking time on Rota-Rod was measured). Then the brain was removed, sliced in 1 mm, the site of infaction was decided by 1% TTC staining and the volume was measured by image analysis. The infarct volume suppression rate (%) and walking time (%) on Rota-Rod with Vehicle 100% at the dose of 10 mg/kg are shown in the following Table. In addition, walking time (sec) on Rota-Rod and infarct volume suppression rate (mm^3) when 3-deazaadenosine was used as a test drug are shown in FIG. 1 and FIG. 2.

homocysteine synthesis = assay: Measurement of homocysteine synthesis inhibitory activity in vivo (methionine-loaded mouse, plasma homocysteine); conditions: dose of 10 mg/kg, oral, BALB/c mouse; methionine water 1 hr later; plasma 30 min after; read-out: activity (homocysteine synthesis inhibitory rate)
Description: A sample was orally administered to BALB/c mouse and, 1 hr later, methionine water (50 g/L) was orally administered at a proportion of 10 ml/kg. 30 min later, blood samples were collected with heparin from the abdominal vein and plasma was obtained. The plasma homocysteine concentration was measured by treating the plasma with tributylphosphine, removing protein with 10% trichloroacetic acid (TCA), fluorescent labeling the supernatant with 4-fluoro-7-sulfobenzofurazan ammonium salt (SBD-F) under alkali conditions, and quantifying by HPLC. The homocysteine synthesis inhibitory rate of the sample was determined with the difference in the homocysteine value between methionine water-loaded animal and methionine water-unloaded animal as 100%. The detailed conditions of HPLC were as follows.
column used: Wakopak^R HandyODS 150*4.6 mm (Wako Pure Chemical Industries, Ltd.) elution condition: 1.0 ml/min elution solvent: 0.1M phosphate buffer (pH 6.0) 2% methanol wavelength: ex 385 nm em 515 nm

[2] = target: T1, Human-recombinant-S-Adenosyl-L-Homocysteine Hydrolase (Homo sapiens, UniProt P23526); assay: Measurement of enzyme inhibitory activity (hydrolysis of S-Adenosyl-L-Homocysteine, HPLC); format: biochemical; conditions: S-Adenosyl-L-Homocysteine 10 μM, pH 7.2, 37° C., 15 min
T1 construct: purchased Diazyme Laboratories
In short: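 Reactions contained recombinant human SAH hydrolase (50 ng), 10 μM S-adenosyl-L-homocysteine and adenosine deaminase (4 units) in 50 mM phosphate buffer, pH 7.2, with 1 mM EDTA, run 15 min at 37 °C. Remaining substrate was measured by reversed-phase HPLC (UV 258 nm). Inhibitory rate compared substrate depletion with versus without compound.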

T1 sequence (P23526 whole entry): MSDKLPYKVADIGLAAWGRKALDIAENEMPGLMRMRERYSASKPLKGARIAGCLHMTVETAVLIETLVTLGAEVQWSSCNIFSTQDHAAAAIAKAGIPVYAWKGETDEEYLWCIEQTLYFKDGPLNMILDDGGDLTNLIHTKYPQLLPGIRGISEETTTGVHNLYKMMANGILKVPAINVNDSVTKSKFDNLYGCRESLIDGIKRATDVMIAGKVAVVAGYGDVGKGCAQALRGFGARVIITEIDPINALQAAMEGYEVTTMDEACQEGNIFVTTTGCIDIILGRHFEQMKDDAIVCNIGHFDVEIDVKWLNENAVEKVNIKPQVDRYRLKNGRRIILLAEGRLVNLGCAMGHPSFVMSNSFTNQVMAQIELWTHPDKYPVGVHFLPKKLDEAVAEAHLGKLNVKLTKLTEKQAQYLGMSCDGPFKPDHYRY

SMILES | infarct volume suppression rate (%) [1] | walking time (%) [1] | inhibition in vivo at 10 mg/kg (homocysteine synthesis) | IC50 [2]
CCNCCNC(=O)CN(CC(=O)N(C)N1Cc2ccc(F)cc2C1)c1cc(-c2noc(C)n2)ccc1C.Cl [Example 20, N^2-{2-[(5-fluoro-1,3-dihydro-2H-isoindol-2-yl)(methyl)amino]-2-oxoethyl}-N^2-[2-methyl-5-(5-methyl-1,2,4-oxadiazol-3-yl)phenyl]-N^1-[2-(ethylamino)ethyl]glycinamide] | 26% | 240% | ≥ 40% | 39 nM
CCNCCNC(=O)CN(CC(=O)N(C)N1Cc2ccccc2C1)c1ccc(-c2noc(C)n2)cc1C [Example 65, N^2-{2-[1,3-dihydro-2H-isoindol-2-yl(methyl)amino]-2-oxoethyl}-N^2-[2-methyl-4-(5-methyl-1,2,4-oxadiazol-3-yl)phenyl]-N^1-[2-(ethylamino)ethyl]glycinamide] | 30% | 250% | ≥ 40% | 47 nM
CCNCCNC(=O)CN(CC(=O)N(C)N1Cc2ccc(F)cc2C1)c1cc2cnn(C)c2cc1C [Example 244, N^2-(1,6-dimethyl-1H-indazol-5-yl)-N^2-{2-[(5-fluoro-1,3-dihydro-2H-isoindol-2-yl)(methyl)amino]-2-oxoethyl}-N^1-[2-(ethylamino)ethyl]glycinamide hydrochloride] | 26% | 330% | ≥ 40% | –
CCNCCNC(=O)CN(CC(=O)N(C)N1Cc2ccc(F)cc2C1)c1cc2c(cc1C)CCC2=O [Example 215, N^2-{2-[(5-fluoro-1,3-dihydro-2H-isoindol-2-yl)(methyl)amino]-2-oxoethyl}-N^2-(6-methyl-3-oxo-2,3-dihydro-1H-inden-5-yl)-N^1-[2-(ethylamino)ethyl]glycinamide] | 19% | 340% | ≥ 40% | 47 nM
CCNCCNC(=O)CN(CC(=O)N(C)N1Cc2ccc(F)cc2C1)c1cc2cnn(CC(F)F)c2cc1C [Example 253, N^2-[1-(2,2-difluoroethyl)-6-methyl-1H-indazol-5-yl]-N^2-{2-[(5-fluoro-1,3-dihydro-2H-isoindol-2-yl)(methyl)amino]-2-oxoethyl}-N^1-[2-(ethylamino)ethyl]glycinamide hydrochloride] | 16% | 230% | ≥ 40% | 20 nM
CCNCCNC(=O)CN(CC(=O)N(C)N1Cc2ccc(F)cc2C1)c1cc2c(C)noc2cc1C [Example 183, N^2-(3,6-dimethyl-1,2-benzisoxazol-5-yl)-N^2-{2-[(5-fluoro-1,3-dihydro-2H-isoindol-2-yl)(methyl)amino]-2-oxoethyl}-N^1-[2-(ethylamino)ethyl]glycinamide dihydrochloride] | 22% | 240% | – | –
